Patent US6042848A, “Enhancement of antimicrobial peptide activity by metal ions” (The Board of Trustees of Southern Illinois University, priority 1997, dated 2000)

How the values were obtained:
E. coli = assay: Bactericidal assay, E. coli colony count after 30 min incubation with peptide and CuSO4; format: cell-based
Protocol: Bovine TAP was synthesized and purified to a single HPLC peak. Bactericidal assay was carried out by growing wild-type E. coli in tryptic soy broth (TSB) until the OD600 reached 0.2. Cells were then diluted in 50 μl 10 mM NaPO4 buffer, pH 7.4, to 4×10^5 cells/ml. […] Five Al samples were plated on L-agar, and the plates were incubated at 37° C. overnight. Colonies were then counted.

Pseudomonas aeruginosa = assay: Bactericidal assay, Pseudomonas strain from a cystic fibrosis patient, with TAP, NaCl and CuSO4; format: cell-based
Protocol: Bovine TAP of 38 amino acids was chemically synthesized by the method of Duclohier ((1989) Biophys. J. 5:1017-1021), and purified to a single peak by HPLC. Bactericidal assay was carried out by growing a wild-type Pseudomonas strain obtained from a cystic fibrosis patient in TSB until the OD600 reached 0.2. Cells were then diluted in 50 μl 10 mM NaPO4 buffer, pH 7.4, to 4×10^5 cells/ml. […] TAP, varying concentrations of NaCl, and 0.1 mM CuS04 were added, and the mixtures were incubated for 30 minutes at 37° C. Five μl samples were taken and plated on L-agar, and the plates were incubated at 37° C. overnight. Colonies were then counted.

[1] = NaCl 0 mM, TAP 0 μg/ml, CU 0 mM as printed (second such line)
[2] = NaCl 15 mM, TAP 0 μg/ml, CU 0.1 mM
[3] = NaCl 25 mM, TAP 0 μg/ml, CU 0.1 mM
[4] = NaCl 50 mM, TAP 0 μg/ml, CU 0.1 mM
[5] = NaCl 75 mM, TAP 0 μg/ml, CU 0.1 mM
[6] = peptide 10 ug/ml, CuSO4 0 mM, 30 min 37 C
[7] = peptide 10 ug/ml, CuSO4 0.01 mM, 30 min 37 C
[8] = peptide 10 ug/ml, CuSO4 0.1 mM, 30 min 37 C
[9] = NaCl 15 mM, TAP 10 μg/ml, CU 0.1 mM
[10] = NaCl 25 mM, TAP 10 μg/ml, CU 0.1 mM
[11] = NaCl 50 mM, TAP 10 μg/ml, CU 0.1 mM
[12] = NaCl 75 mM, TAP 10 μg/ml, CU 0.1 mM

O=S(=O)([O-])[O-].[Cu+2] [CuSO4, copper sulfate (cupric sulfate)]
% SURVIVAL (E. coli; No Peptide, CuSO4 0.01 mM): 62% | % SURVIVAL (E. coli; No Peptide, CuSO4 0.1 mM): 22% | % SURVIVAL (E. coli; No Peptide, CuSO4 1 mM): 16% | % SURVIVAL (E. coli; No Peptide, CuSO4 10 mM): 7% | # COLONIES (E. coli; No Peptides, CuSO4 0.01 mM): 1776 | # COLONIES (E. coli; No Peptides, CuSO4 0.1 mM): 640 | # COLONIES (E. coli; No Peptides, CuSO4 1 mM): 443 | # COLONIES (E. coli; No Peptides, CuSO4 10 mM): 211 | # COLONIES (Pseudomonas aeruginosa; [1]): 534 | % SURVIVAL (Pseudomonas aeruginosa; [1]): 35% | # COLONIES (Pseudomonas aeruginosa; [2]): 580 | % SURVIVAL (Pseudomonas aeruginosa; [2]): 39% | # COLONIES (Pseudomonas aeruginosa; [3]): 513 | % SURVIVAL (Pseudomonas aeruginosa; [3]): 34% | # COLONIES (Pseudomonas aeruginosa; [4]): 696 | % SURVIVAL (Pseudomonas aeruginosa; [4]): 46% | # COLONIES (Pseudomonas aeruginosa; [5]): 796 | % SURVIVAL (Pseudomonas aeruginosa; [5]): 53%

Tracheal Antimicrobial Peptide (NPVSCVRNKGICVPIRCPGSMKQIGTCVGRAVKCCRKK; UniProt P25068 27-64, looked up) [TAP, airway beta-defensin; bovine TAP of 38 amino acids, chemically synthesized and purified to a single HPLC peak]
% SURVIVAL (E. coli; TAP 1 ug/ml, CuSO4 0 mM): 40% | % SURVIVAL (E. coli; TAP 1 ug/ml, CuSO4 0.01 mM): 8% | % SURVIVAL (E. coli; TAP 1 ug/ml, CuSO4 0.1 mM): 2% | # COLONIES (E. coli; peptide 10 ug/ml, Cu 0 mM): 119 | # COLONIES (E. coli; peptide 10 ug/ml, Cu 0.01 mM): 106 | # COLONIES (E. coli; peptide 10 ug/ml, Cu 0.1 mM): 32 | % SURVIVAL (E. coli; [6]): 9% | % SURVIVAL (E. coli; [7]): 8% | % SURVIVAL (E. coli; [8]): 2% | # COLONIES (Pseudomonas aeruginosa; [9]): 233 | % SURVIVAL (Pseudomonas aeruginosa; [9]): 15% | # COLONIES (Pseudomonas aeruginosa; [10]): 89 | % SURVIVAL (Pseudomonas aeruginosa; [10]): 6% | # COLONIES (Pseudomonas aeruginosa; [11]): 242 | % SURVIVAL (Pseudomonas aeruginosa; [11]): 16% | # COLONIES (Pseudomonas aeruginosa; [12]): 363 | % SURVIVAL (Pseudomonas aeruginosa; [12]): 24% | killing of Pseudomonas by the combination of copper ions and TAP versus TAP alone (Pseudomonas aeruginosa; copper 0.1 mM, increasing NaCl concentrations): more effective than TAP alone

magainin
effect of CuSO4 on the antimicrobial activity of the peptide (E. coli; 0.01 to 0.1 mM CuS04): enhanced the antimicrobial activity | # COLONIES (E. coli; peptide 10 ug/ml, Cu 0 mM): 1895 | # COLONIES (E. coli; peptide 10 ug/ml, Cu 0.01 mM): 1654 | # COLONIES (E. coli; peptide 10 ug/ml, Cu 0.1 mM): 975 | % SURVIVAL (E. coli; [6]): 80% | % SURVIVAL (E. coli; [7]): 70% | % SURVIVAL (E. coli; [8]): 41%
